From US10526329B2 (Galapagos NV, priority 2013, dated 2020)

Tests used:
[1] = system: TS-exposed female C57BL/6J mice; test: Tobacco smoke (TS) model, lungs inflammatory cells recruitment; assay type: in vivo, mouse; settings: days 6 to 11, TS-exposed mice
Protocol: The aim of this experiment is to evaluate the efficacy and potency of a test compound administered p.o., once or twice daily on days 6 to 11, vs reference compounds, on pulmonary inflammation induced by 11 days of TS-exposure in female C57BL/6J mice, by assessing the effect of a test compound on the tobacco smoke induced recruitment of inflammatory cells to the lungs.
The test compounds are formulated in PEG200/0.5% methylcellulose (25/75, v/v) and are given at a dose volume of 10 mL/kg. Roflumilast and Dexamethasone are included as positive […] control, respectively. Each treatment group consists of 10 mice.
A first group of mice is subjected to daily TS-exposure for 5 consecutive days and sacrificed on the day 6, 24 h after the final TS-exposure.
A second group is exposed to air for 5 consecutive days (sham exposure) and sacrificed on the day 6, 24 h after the final air-exposure.
Compound and reference-treated groups are subjected to daily TS-exposure for 11 consecutive days and sacrificed on the day 12, 24 h after the final TS-exposure. Mice are dosed p.o. on days 6 to 11, twice daily, 1 h prior to and 6 h after each TS-exposure, with either vehicle, or the test compound at 3, 5, 10 or 30 mg/kg. Another group is dosed p.o. on days 6 to 11, once daily, 1 h prior to each TS-exposure, with either vehicle, or the test compound at 10 mg/kg.
An additional group is dosed p.o., once daily, on days 6 to 11, with roflumilast at 5 mg/kg, 1 h prior to each TS-exposure. Dexamethasone is dosed p.o., twice daily, on days 6 to 11, at 0.3 mg/kg, 1 h prior to and 6 h after each TS-exposure.
For each mouse, a BAL is performed using 0.4 mL of PBS. The lavage fluid is centrifuged, the supernatant removed and the resulting cell pellet re-suspended for total cell counts and cytospin slide preparation. […]
The lungs are dissected out and the left lobes are removed, snap-frozen and stored at −80° C. […] Cell data are presented as individual data points for each animal and the mean value calculated for each group. […]
Percentage inhibitions for the cell data are calculated using the formula below: […]

hENPP2 = hENPP2 (Homo sapiens (Human), UniProt Q13822); test: hENPP2 biochemical assay, LPC as substrate
Protocol: The principle of the assay consists in quantifying the released choline with an enzymatic method using choline oxidase and peroxidase. Choline oxydation by choline oxydase releases betaine and peroxide. The latter is quantified in presence of HRP that converts the peroxide detection agent TOOS and 4-aminoantipyrine into quinoneimine dye. The appearance of quinoneimine dye is measured spectrophotometrically at 555 nm and is proportional to the amount of choline released by ENPP2. Inhibition of ENPP2 will result in a decrease of the signal.
Compound IC50 values are determined in a hENPP2 (UniProtKB/SwissProt Sequence ref Q13822) biochemical assay using LPC as substrate.
The enzyme is diluted in 50 mM Tris-HCl pH 8.5, 500 mM NaCl, 5 mM KCl, 10 mM CaCl2, 0.1% fatty acid free BSA in a total volume of 10 μL. the reaction is started by the addition of 10 μL of 150 μM LPC (palmitoyl 16:0) diluted in the same buffer as described above and the mixture is incubated at 37° C. for 30 min. The reaction is terminated and choline quantified by the addition of a 25 μL of a mixture containing 0.6 U/mL of choline oxidase, 0.6 U/mL of peroxydase, 1.8 mM TOOS, 1.2 mM amino-antipyrine, 20 mM EGTA (stop-developer solution) diluted in the buffer described above. […] is read on the Envision after an incubation of 30 min at room temperature (Excitation 555 nm, excitation light=70%).

| IC50 (hENPP2) [µM] | SMILES | number of cells recovered in the BALF, in particular macrophage cells, epithelial cells, and neutrophils ([1]; 3 mg/kg twice daily p.o.) | number of cells recovered in the BALF, in particular macrophage cells, epithelial cells, and neutrophils ([1]; 10 mg/kg twice daily p.o.) |
| --- | --- | --- | --- |
|  | CCc1nc2c(C)cc(N3CCN(CC(=O)N4CC(O)C4)CC3)cn2c1N(C)c1nc(-c2ccc(F)cc2)c(C#N)s1 [Compound 2, 2-((2-ethyl-6-(4-(2-(3-hydroxyazetidin-1-yl)-2-oxoethyl)piperazin-1-yl)-8-methylimidazo[1,2-a]pyridin-3-yl)(methyl)amino)-4-(4-fluorophenyl)thiazole-5-carbonitrile] | significantly inhibited | significantly inhibited |
|  | CCc1nc2c(F)cc(N3CCN(CC(=O)N4CC(O)C4)CC3)cn2c1N(C)c1nc(-c2ccc(F)cc2)c(C#N)s1 [Compound 12, 2-((2-ethyl-8-fluoro-6-(4-(2-(3-hydroxyazetidin-1-yl)-2-oxoethyl)piperazin-1-yl)imidazo[1,2-a]pyridin-3-yl)(methyl)amino)-4-(4-fluorophenyl)thiazole-5-carbonitrile] |  | significantly inhibited |
| 0.5 to 1 | CCc1nc2ccc(C3CCN(C4=NCC(CO)O4)CC3)cn2c1N(C)c1nc(-c2ccc(F)cc2)cs1 (stereo not shown) [Compound 222] |  |  |
